The assay deals with Mycobacterium tuberculosis variant bovis. Nature of the assay: Antibacterial activity against Mycobacterium bovis BCG ATCC 35743 constitutive expressing GFP assessed as bacterial growth inhibition at 20 uM by CLSI protocol based broth microdilution method. The note with it: read-out: GI. In kind it is functional. For orientation: In broth dilution the organism is exposed to a series of concentrations in liquid medium.

SMILES strings stand for the structures.

As to `C=C[C@]1(C)C[C@@H](OC(=O)CO)[C@@]2(C)C3=CC(=O)C[C@@]3(CC[C@H]2C)[C@@H](C)[C@@H]1O`, the inhibition of growth at 20 µM worked out at 62%. Regarding `C=C[C@]1(C)C[C@@H](O)[C@@]2(C)C3C(=O)CC[C@@]3(CC[C@H]2C)[C@@H](C)[C@@H]1O` (some centres undefined), the inhibition of growth at 20 µM was 48%. Take `C=C[C@]1(C)C[C@@H](OC(=O)CO)[C@@]2(C)C3C(=O)CC[C@@]3(CC[C@H]2C)[C@@H](C)[C@@H]1O` (some centres undefined): the inhibition of growth at 20 µM is 50%. For the compound `C[C@@H]1CC[C@@]23CCC(=O)C2[C@]1(C)[C@H](OC(=O)CO)C[C@@](C)([C@H](O)CO)[C@@H](O)[C@@H]3C` (some centres undefined), the inhibition of growth at 20 µM was 20%. In the case of `C=C[C@]1(C)C[C@@H](O)[C@@]2(C)C3[C@H](O)CC[C@@]3(CC[C@H]2C)[C@@H](C)[C@@H]1O` (some centres undefined), the inhibition of growth at 20 µM came out at 36%. Then `C=C[C@]1(C)C[C@@H](OC(C)=O)[C@@]2(C)C3=CC(=O)C[C@@]3([C@H](O)C[C@H]2C)[C@@H](C)[C@@H]1O`, with 34%; and `C=C[C@]1(C)C[C@@H](O)[C@@]2(C)C3CCC[C@@]3(CC[C@H]2C)[C@@H](C)C1` (some centres undefined), with 24%. The value for `C=C[C@]1(C)C[C@@H](OC(C)=O)[C@@]2(C)C3[C@H](O)CC[C@@]3(CC[C@H]2C)[C@@H](C)[C@@H]1O` (some centres undefined) was 43%; that for `C=C[C@]1(C)C[C@@H](OC(=O)CO)[C@@]2(C)C3C(=O)[C@H](O)CC3(CC[C@H]2C)[C@@H](C)[C@@H]1O` (single isomer, unassigned) was 34%.

Source of the values: ChEMBL document CHEMBL5352418, “Molecular networking assisted discovery and combinatorial biosynthesis of new antimicrobial pleuromutilins” (Eur J Med Chem, 2022).
